From article PMC2996262 (Journal of medicinal chemistry, 2010)

Tests used:
MDR viruses = experiment: Antiviral assays, range over MDR viruses; type: cell-based, HIV-1
wild-type viruses = experiment: Antiviral assays, range over wild-type viruses; type: cell-based, HIV-1; conditions: Human immunodeficiency virus 1, read-out: EC50 against wild-type viruses

Row | SMILES | loss of potency against MDR viruses (MDR viruses; relative to wild-type viruses) | EC50 (wild-type viruses) [nM] | antiviral potency against the MDR HIV-1 variants, better than LPV (MDR viruses; compared with LPV) [fold]
1 | CC(C)CN(C[C@@H](O)[C@H](Cc1ccccc1)NC(=O)[C@@H]1CN(c2ccccc2)C(=O)O1)S(=O)(=O)c1ccc2ncsc2c1 [15d] | about 6 fold | 14 to 41 | 
2 | CC(=O)c1cccc(N2C[C@@H](C(=O)N[C@@H](Cc3ccccc3)[C@H](O)CN(CC(C)C)S(=O)(=O)c3ccc4ncsc4c3)OC2=O)c1 [26d] |  | 4.2 to 10.1 | 
3 | CC(C)CN(C[C@@H](O)[C@H](Cc1ccccc1)NC(=O)[C@@H]1CN(c2cccc(S(C)(=O)=O)c2)C(=O)O1)S(=O)(=O)c1ccc2ncsc2c1 [27d] |  | 3.5 to 5.7 | 
4 | COC(=O)Nc1cccc(N2C[C@@H](C(=O)N[C@@H](Cc3ccccc3)[C@H](O)CN(CC(C)C)S(=O)(=O)c3ccc4ncsc4c3)OC2=O)c1 [31d] |  | 1.2 to 3 | 3
